Activity calls are given as the source filed them. How the calls were made is not given here.
Each compound was assayed on Clostridioides difficile clinical isolate growth, OD600, 24 h (assay: inhibitors of Clostridioides difficile proliferation – 4-point retest, confirmation (AID 1224921)).

SMILES | AC50
CO[C@H]1CN(C)C(=O)c2ccc(NC(=O)Nc3cc(Cl)cc(Cl)c3)cc2OC[C@@H](C)NC[C@H]1C | 15.1 µM
CO[C@H]1CN(C)C(=O)c2ccc(NC(=O)c3nc4ccccc4s3)cc2OC[C@@H](C)N(Cc2ccncc2)C[C@@H]1C | 30.8 µM
O=C(NCC[C@H]1CC[C@@H](NC(=O)Nc2cc(F)ccc2F)[C@H](CO)O1)Nc1ccc(Cl)cc1 | 18.5 µM
COc1ccccc1C#Cc1ccc([C@H]2[C@@H](CO)N(C(=O)C3CCCCC3)[C@H]2C#N)cc1 | 34.2 µM
O=C(C[C@H]1CC[C@H]2[C@@H](COC[C@@H](O)CN2C(=O)Nc2ccc(C(F)(F)F)cc2)O1)NCC1CC1 | 1.18 µM
O=C(C[C@@H]1CC[C@@H]2[C@H](COC[C@@H](O)CN2C(=O)Nc2ccc(C(F)(F)F)cc2)O1)NCCc1ccncc1 | 4.07 µM
O=C(C[C@@H]1CC[C@@H]2[C@H](COC[C@@H](O)CN2C(=O)Nc2cccc(Cl)c2)O1)N1CCCCC1 | 18.7 µM
C[C@@H]1CN([C@@H](C)CO)C(=O)c2cccc(NC(=O)Nc3ccc(C(F)(F)F)cc3)c2O[C@@H]1CN(C)CC1CCCCC1 | 3.63 µM
CO[C@@H](CN(C)Cc1cc(F)ccc1F)[C@@H](C)CN(C(=O)Nc1ccc(C(F)(F)F)cc1)[C@H](C)CO | 6.79 µM
CCCNC(=O)C[C@H]1CC[C@@H]2[C@H](COC[C@@H](O)CN2C(=O)Nc2ccc(Cl)c(Cl)c2)O1 | 2.91 µM
CCC(=O)N[C@@H]1CC[C@@H](CCNC(=O)Nc2ccc(C(F)(F)F)cc2)O[C@H]1CO | 2.75 µM
C[C@@H]1CCCCO[C@H](CN(C)CC2CC2)[C@H](C)CN([C@@H](C)CO)C(=O)c2cc(NC(=O)Nc3ccc(C(F)(F)F)cc3)ccc2O1 | 16 µM
Cc1cc(C(=O)Nc2cccc3c2O[C@@H](CN(C)Cc2ccc(-c4ccccc4)cc2)[C@H](C)CN([C@@H](C)CO)C3=O)n(C)n1 | 1.01 µM
C[C@@H]1CCCCO[C@H](CN(C)Cc2ccccc2)[C@@H](C)CN([C@@H](C)CO)C(=O)c2cc(NC(=O)Nc3ccc(C(F)(F)F)cc3)ccc2O1 | 12.5 µM
C[C@@H]1CN([C@H](C)CO)C(=O)Cc2cc(NS(=O)(=O)c3ccc(Cl)cc3)ccc2O[C@H]1CN(C)CC1CCCCC1 | 18 µM
O=C(C[C@@H]1CC[C@@H]2[C@H](COC[C@@H](O)CN2C(=O)Nc2ccc(Cl)c(Cl)c2)O1)NCc1ccc(F)cc1 | 1.87 µM
CO[C@H]1CN(C)C(=O)c2cc(NC(=O)Nc3ccc(Cl)c(Cl)c3)ccc2OC[C@H](C)NC[C@@H]1C | 8.68 µM
C[C@H](CO)N1C[C@H](C)[C@@H](CN(C)CC2CCCC2)Oc2ncc(C#CCc3ccccc3)cc2C1=O | > 60 µM (inactive)
CO[C@@H]1CN(C)C(=O)c2ccc(NC(=O)Nc3cc(Cl)cc(Cl)c3)cc2OC[C@H](C)NC[C@H]1C | 7.81 µM
COc1ccc(-c2ccc([C@H]3[C@@H](C#N)N(C(=O)C4CCC4)[C@H]3CO)cc2)cc1 | > 70 µM (inactive)
O=C(NCC[C@H]1CC[C@@H](NC(=O)c2cccnc2)[C@@H](CO)O1)Nc1ccc(C(F)(F)F)cc1 | 2.9 µM
CNC[C@@H]1OCCCC[C@H](C)Oc2ccc(NC(=O)Nc3ccc(C(F)(F)F)cc3)cc2C(=O)N([C@H](C)CO)C[C@H]1C | 19.4 µM
COCC(=O)N1C[C@H](C)[C@H](OC)CN(C)C(=O)c2ccc(NC(=O)NC(C)C)cc2OC[C@H]1C | > 60 µM (inactive)
C[C@H]1CCCCO[C@H](CN(C)Cc2ccccc2)[C@@H](C)CN([C@@H](C)CO)C(=O)c2cc(NC(=O)Nc3ccc(C(F)(F)F)cc3)ccc2O1 | 18.2 µM
O=C(C[C@@H]1CC[C@@H]2[C@H](COC[C@H](O)CN2C(=O)Nc2ccc(Cl)c(Cl)c2)O1)NC1CCC1 | 7.33 µM

SMILES | AC50
CCNC(=O)C[C@@H]1CC[C@H]2[C@@H](COC[C@@H](O)CN2C(=O)Nc2ccc(Cl)c(Cl)c2)O1 | 2.6 µM
O=C(NCC[C@H]1CC[C@H](NC(=O)C2CC2)[C@H](CO)O1)Nc1ccc(C(F)(F)F)cc1 | 16 µM
O=C(C[C@@H]1CC[C@@H]2[C@H](COC[C@H](O)CN2C(=O)Nc2ccc(C(F)(F)F)cc2)O1)NC1Cc2ccccc2C1 | 19 µM
CCC(=O)N[C@@H]1CC[C@H](CCNC(=O)Nc2ccc(C(F)(F)F)cc2)O[C@H]1CO | 7.27 µM
COc1ccc(C(=O)Nc2ccc3c(c2)OC[C@@H](C)N(C(C)=O)C[C@H](C)[C@@H](OC)CN(C)C3=O)cc1 | > 60 µM (inactive)
C[C@H]1CN([C@@H](C)CO)C(=O)c2cccc(NC(=O)Nc3ccc(C(F)(F)F)cc3)c2O[C@H]1CN(C)C(=O)Nc1ccc(F)cc1 | 23.4 µM
COc1ccc(CN(C)C[C@H]2Oc3c(NC(=O)Nc4ccc(C(F)(F)F)cc4)cccc3C(=O)N([C@@H](C)CO)C[C@H]2C)cc1 | 1.65 µM
CC(=O)N[C@H]1CC[C@@H](CCNC(=O)Nc2ccc(C(F)(F)F)cc2)O[C@@H]1CO | 10.8 µM
O=C(C[C@H]1CC[C@@H]2[C@H](COC[C@H](O)CN2C(=O)Nc2cc(Cl)cc(Cl)c2)O1)N1CCOCC1 | 9.61 µM
CO[C@@H]1CN(C)C(=O)c2cc(NC(=O)Nc3ccc(Cl)c(Cl)c3)ccc2OC[C@@H](C)NC[C@@H]1C | 4.25 µM
Cc1ccc(S(=O)(=O)N[C@H]2CC[C@@H](CCNC(=O)Nc3ccc(Cl)cc3)O[C@H]2CO)cc1 | 18.2 µM
CO[C@H]1CN(C)C(=O)c2cc(NC(=O)Nc3ccc(Cl)c(Cl)c3)ccc2OC[C@@H](C)NC[C@@H]1C | 4.39 µM
C[C@@H]1CN([C@@H](C)CO)C(=O)Cc2cc(N(C)C)ccc2O[C@H]1CN(C)Cc1ccc(Oc2ccccc2)cc1 | 19.1 µM
C[C@H](NC(=O)C[C@H]1CC[C@H]2[C@@H](COC[C@@H](O)CN2C(=O)Nc2cc(Cl)cc(Cl)c2)O1)c1ccccc1 | 17.9 µM
O=C(C[C@@H]1CC[C@@H]2[C@H](COC[C@@H](O)CN2C(=O)Nc2ccc(C(F)(F)F)cc2)O1)NCC1CCCCC1 | 2.03 µM
O=C(C[C@@H]1CC[C@H]2[C@@H](COC[C@@H](O)CN2CC2CCCCC2)O1)NCc1ccc(Cl)cc1 | > 60 µM (inactive)
CO[C@@H]1CN(C)C(=O)c2cc(NC(=O)Nc3ccc(Cl)c(Cl)c3)ccc2OC[C@H](C)NC[C@@H]1C | 8.13 µM
C[C@@H](NC(=O)C[C@@H]1CC[C@@H]2[C@H](COC[C@H](O)CN2C(=O)Nc2cc(Cl)cc(Cl)c2)O1)c1ccccc1 | 9.64 µM
O=C(C[C@H]1CC[C@@H]2[C@H](COC[C@H](O)CN2C(=O)Nc2ccc(Cl)c(Cl)c2)O1)NCc1ccc(Cl)cc1 | 1.88 µM
CO[C@H]1CN(C)C(=O)c2cc(NC(=O)Nc3cc(Cl)cc(Cl)c3)ccc2OC[C@@H](C)NC[C@@H]1C | 14.7 µM
CO[C@@H]1CN(C)C(=O)c2cc(NC(=O)C3CCCC3)ccc2OC[C@@H](C)N(C(=O)Nc2ccc(C(F)(F)F)cc2)C[C@H]1C | 26.6 µM
O=C(C[C@@H]1CC[C@H]2[C@@H](COC[C@H](O)CN2C(=O)Nc2ccc(Cl)c(Cl)c2)O1)NCc1ccc(Cl)cc1 | 2.61 µM
COc1cccc(C#Cc2cnc3c(c2)C(=O)N([C@H](C)CO)C[C@H](C)[C@@H](CN(C)C)O3)c1 | 33.2 µM
CCC(=O)N[C@H]1CC[C@@H](CCNC(=O)Nc2ccc(C(F)(F)F)cc2)O[C@H]1CO | 2.41 µM
O=C(Nc1ccc(-c2ccccc2)cc1)[C@H]1[C@H](CO)[C@H]2Cn3c(cccc3=O)[C@H]2N1CC1CCCCC1 | > 60 µM (inactive)

SMILES | AC50
O=C(C[C@@H]1CC[C@H]2[C@@H](COC[C@H](O)CN2S(=O)(=O)c2ccc(Cl)cc2)O1)NCc1ccc(Cl)c(Cl)c1 | 30.9 µM
CO[C@H]1CN(C)C(=O)c2ccc(NC(=O)Nc3ccccc3)cc2OC[C@@H](C)NC[C@@H]1C | > 60 µM (inactive)
O=C(C[C@@H]1CC[C@@H]2[C@H](COC[C@@H](O)CN2C(=O)Nc2ccc(Cl)c(Cl)c2)O1)NC1CCC1 | 2.82 µM
CCCNC(=O)C[C@@H]1CC[C@H]2[C@@H](COC[C@H](O)CN2C(=O)Nc2ccc(Cl)c(Cl)c2)O1 | 5.98 µM
C[C@@H]1CN([C@@H](C)CO)C(=O)c2cc(NC(=O)Nc3ccc(C(F)(F)F)cc3)ccc2O[C@@H](C)CCCCO[C@H]1CN(C)CC1CCCCC1 | 4.9 µM
O=C(C[C@H]1CC[C@@H]2[C@H](COC[C@@H](O)CN2C(=O)Nc2ccc(Cl)c(Cl)c2)O1)NCc1ccccc1 | 4.01 µM
C[C@H]1CN([C@@H](C)CO)S(=O)(=O)c2ccc(C#Cc3ccc(F)cc3)cc2O[C@@H]1CN(C)C | 34.2 µM
O=C(C[C@H]1CC[C@H]2[C@@H](COC[C@H](O)CN2C(=O)Nc2ccc(C(F)(F)F)cc2)O1)NCCc1ccncc1 | 2.37 µM
O=C(NCC[C@H]1CC[C@@H](NC(=O)C2CC2)[C@@H](CO)O1)Nc1ccc(C(F)(F)F)cc1 | 1.69 µM
N#C[C@H]1[C@@H](c2ccc(C#CC3CCCC3)cc2)[C@H](CO)N1C(=O)Nc1ccc(F)cc1 | > 60 µM (inactive)
O=C(C[C@@H]1CC[C@@H]2[C@H](COC[C@H](O)CN2C(=O)Nc2ccc(Cl)c(Cl)c2)O1)NCc1ccc(Cl)cc1 | 0.915 µM
CCC(=O)N[C@@H]1CC[C@H](CCNC(=O)Nc2ccc(C(F)(F)F)cc2)O[C@@H]1CO | 4.29 µM
O=C(C[C@@H]1CC[C@@H]2[C@H](COC[C@H](O)CN2C(=O)Nc2ccc(Cl)c(Cl)c2)O1)NCc1ccc(Cl)c(Cl)c1 | 1.14 µM
NC(=O)[C@@H]1[C@H]2C(=O)O[C@H](c3ccccc3)[C@H](c3ccccc3)N2[C@H](c2ccccc2OCCO)[C@@]12C(=O)Nc1ccccc12 | 32.8 µM
C[C@H](NC(=O)C[C@@H]1CC[C@@H]2[C@H](COC[C@H](O)CN2C(=O)Nc2cccc(Cl)c2)O1)c1ccccc1 | 14.4 µM
CNC(=O)C[C@H]1CC[C@@H]2[C@H](COC[C@H](O)CN2C(=O)Nc2ccc(Cl)c(Cl)c2)O1 | 4.12 µM
O=C(C[C@@H]1CC[C@@H]2[C@H](COC[C@H](O)CN2C(=O)Nc2ccc(Cl)c(Cl)c2)O1)NCc1ccc(F)cc1 | 0.968 µM
COc1ccc(CN(C)C[C@@H]2OCCCC[C@H](C)Oc3ccc(NC(=O)Nc4cccc5ccccc45)cc3C(=O)N([C@H](C)CO)C[C@H]2C)cc1 | 22.6 µM
O=C(C[C@@H]1CC[C@@H]2[C@H](COC[C@H](O)CN2C(=O)Nc2cc(Cl)cc(Cl)c2)O1)NCC1CC1 | 16.9 µM
O=C(C[C@H]1CC[C@@H]2[C@H](COC[C@H](O)CN2C(=O)Nc2ccc(C(F)(F)F)cc2)O1)NCCc1ccncc1 | 3.55 µM
CNC[C@H]1OCCCC[C@@H](C)Oc2ccc(NC(=O)Nc3ccc(C(F)(F)F)cc3)cc2C(=O)N([C@H](C)CO)C[C@H]1C | 15.4 µM
C[C@@H]1CN([C@@H](C)CO)C(=O)c2cccc(NC(=O)Nc3ccccc3)c2O[C@@H]1CN(C)Cc1ccc(C(F)(F)F)cc1 | 8.02 µM
CNC(=O)C[C@@H]1CC[C@H]2[C@@H](COC[C@H](O)CN2C(=O)Nc2ccc(Cl)c(Cl)c2)O1 | 7.63 µM

— PubChem BioAssay AID1224921 (Broad Institute, 2016)
